This is an account of results in patent publication US6103709A (priority 1998, dated 2000).

Entries after “also recorded” stand apart in the source; their conditions may differ.

Assay [1] relates to vitamin D-deficient chick. The assay can be described thus: Intestinal Ca2+ absorption (ICA) in vitamin D-deficient chick. In kind it is in vivo. To be noted: i.m.; for Classic Vit D Responses ICA: relative to 100 pmol 1α,25(OH)2 D3 = 100%, 12 h before assay; for ICA (in words): vitamin D-deficient chick. As to the method: A primary fundamental physiological property of vitamin D and particularly 1α,25(OH)2 D3 is its ability to stimulate the intestinal absorption of calcium and facilitate the availability of dietary calcium to the organism. Intestinal absorption of the calcium is measured by the intestinal calcium absorption (ICA) assay, developed in the model of vitamin-D deficient chicks. The ICA assay was used to determine the relative capability of the tested analog to stimulate intestinal Ca^2+ absorption.
Results of the testing of the analogs of the invention in vivo by the ICA and IBM assays are shown in FIG. 9 which illustrates the capability of analogs LO, EV and HR to stimulate intestinal Ca^2+ absorption (ICA) and bone Ca^2+ mobilizing activity (BCM). In this study, the analogs of 1α,25(OH) were given i.m. to vitamin D-deficient chicks 12 hours before the assay began. The activity produced by 100 pmol of 1α,25(OH)2 D3 was set to be 100% for both ICA and BCM. The dose of the analogs required to achieve a biological response for either ICA or BCM equivalent to the 100 pmol dose of 1α,25(OH)2 D3 was calculated and converted to a percentage. Results are expressed as mean +SE of groups of seven chicks. Each assay included a negative control (-D), that is no vitamin D was present, and a positive control, where vitamin D3 (+D3) was present in 3.25 nmol. […] 1α,25(OH)2 D3 and analogs LO [14α,15α-methano-1α,25(OH)2 D3 ], EV [22-(m(dimethylhydroxymethyl)phenyl)-23,24,25,26,27-pentanor-1α-OH-D3 ] and HR [(22R)-1,25(OH)2 -22,23-diene-D3 ] were administered in 0.0065, 0.065, 0.65 and 6.5 nmol as shown.
In Vivo Assays of Intestinal Calcium Absorption and Bone Calcium Mobilization
This example describes assays used for determination of analogs biological activity in intestinal calcium absorption (ICA) and bone calcium mobilization (BCM) assays.
ICA and BCM were measured in vivo in the vitamin D-deficient chick model system according to Biochem. Pharmacol., 18: 2347 (1969).
Twelve hours before assay, the chickens, which had been placed on a zero-calcium diet 48 h before assay, were injected intramuscularly with the vitamin metabolite 1α,25(OH)2 D3 or analog (1-10,000 pmoles) dissolved in 0.1 mL of ethanol/1,2-propanediol (1:1, v/v). At the time of assay, 4.0 mg of ^40 Ca^2+ +5 μCi of ^45 Ca^2+ (New England Nuclear) were placed in the duodenum of the birds lightly anesthetized with ether. After 30 min, the birds were decapitated and the blood was collected.
The radioactivity content, which is a measure of ICA, of 0.2 mL of serum was measured in a liquid scintillation counter (Beckman LS8000) to determine the amount of ^45 Ca^2+ absorbed.

In assay [2] the test system is intestinal Ca2+ transport in perfused chick duodena (transcaltachia). The assay can be described thus: Transcaltachia assay (rapid stimulation of 45Ca2+ transport in perfused duodena). To be noted: for Rapid Trans-Caltachia, relative to 1α,25(OH)2 D3: 1α,25(OH)2 D3 = 100; for stimulation of transcaltachia (in words, FIG. 11): perfusion with 300 pM or 650 pM analog, reference 650 pM 1α,25(OH)2 D3, within first four minutes. Here is the method:
Duodenal loops from normal, vitamin D-replete chicks were lumenally perfused with ^45 Ca^2+ (5 uCi/ml of buffer). To establish basal transport rates, celiac artery of controls were perfused with control medium for the first 20 min. The duodena were then either re-exposed to control medium containing the vehicle ethanol (0.005%, final concentration) through the celiac artery, or vascularly perfused with 300 pM or 650 pM agonist analogs JM or JN or with 650 pM of a control reference compound 1α,25(OH)2 D3. The venous effluent was collected at 2 min intervals for liquid scintillation spectrophotometry of the ^45 Ca^2+. […] Values represent mean ±SEM for n=4 in each group.
The data shown in FIG. 13 are the mean ±SEM from 4-5 duodena. […] Open circles represent the negative control receiving no treatment with 1α,25(OH)2 D3 or analog. […] Data represent the ratio of treated to basal values ±SEM extracted from a time-course plot (as in panel A) at 32 minutes.
This example describes the assay used for testing rapid response transcaltachia described in J. Biol. Chem, 268: 13811-13819 (1993).
White Leghorn cockerels (Hyline International, Lakeview, Calif.) were obtained on the day of hatch and maintained on a vitamin D-supplemented diet (1.0% calcium and 1.0% phosphorus; O. H. Kruse Grain and Milling, Ontario, Calif.) for 5-6 weeks to prepare normal vitamin D3 -replete chicks for use in the transcaltachia studies.
Measurements of ^45 Ca^2+ transport were carried out in perfused chick duodena. Normal vitamin D-replete chicks weighing approximately 500 g were anesthetized with 0.3 ml per 100 g Chloropent (Fort Dodge, Iowa), and the duodenal loop was surgically exposed. The celiac vein and blood vessels branching off from the celiac artery were ligated before cannulation of the celiac artery itself, and vascular perfusion was immediately initiated. Both the celiac artery and vein of the duodena were perfused with modified Grey's balanced salt solution (GBSS) +0.9 mM Ca which was oxygenated with 95% O2 and 5% CO2. A basal transport rate was established by perfusion with control medium for 20 minutes after the intestinal lumen was filled with ^45 Ca^2+. The tissue was then exposed to 1α,25(OH)2 D3 or analogs or reexposed to control medium for an additional 40 minutes. The vascular perfusate was collected at 2 min intervals during the last 10 min of the basal and during the entire treatment period. Duplicate 100 μl aliquots were taken for determination of the ^45 Ca^2+ levels by liquid scintillation spectrometry.

With `C=C1/C(=C\C=C2/CCC[C@]3(C)[C@@H]([C@H](C)Cc4cccc(O)c4)CC[C@@H]23)C[C@@H](O)C[C@@H]1O` [DE], in assay [1], the “Classic Vit D Responses ICA” value was 0.3%; the “ICA (in words)” value was “show stimulating activity in both ICA and BCM assays”.

As to `C=C1/C(=C\C=C2/CCC[C@]3(C)[C@@H]([C@H](C)Cc4ccc(O)cc4)CC[C@@H]23)C[C@@H](O)C[C@@H]1O` [DF], the “Classic Vit D Responses ICA” value in assay [1] turned out to be 0.04%. Regarding `C=C1/C(=C\C=C2/CCC[C@]3(C)[C@@H]([C@H](C)Cc4cccc(C(C)(C)O)c4)CC[C@@H]23)C[C@@H](O)C[C@@H]1O` [EV], in assay [1], the “Classic Vit D Responses ICA” value is 30%; the “ICA (in words)” value is “show stimulating activity in both ICA and BCM assays”. As to `CC1=C(/C=C\C2=CCC[C@@]3(C)[C@@H]2CC[C@@H]3[C@H](C)CCCC(C)(C)O)C[C@@H](O)C[C@@H]1O` [GF], the “Classic Vit D Responses ICA” value in assay [1] is on record as 1.5%. As to `C=C1/C(=C\C=C2/CCC[C@]3(C)[C@@H]([C@H](C)CCCC(C)(C)O)CC[C@@H]23)C[C@@H](O)C[C@H]1O` [HL], in assay [2] (HL 12 pM in combination with 1α,25(OH)2 D3 300 pM), the “transcaltachia caused by 1α,25(OH)2 D3 in presence of HL” value is recorded as “particularly observable”. Besides, the “inhibition of 1α,25(OH)2 D3-stimulated transcaltachia” value is “clear inhibition of transcaltachia” in assay [2] (HL 60 pM in advance of 300 pM 1α,25(OH)2 D3); “clearly inhibited” in assay [2] (HL 400 pM, 1α,25(OH)2 D3 300 pM); “almost completely inhibited; also recorded: potent ability of 1β,25(OH)2 D3 (HL) to block or antagonize” in assay [2] (HL administered before 1α,25(OH)2 D3 / FIG. 13 overall). The “Classic Vit D Responses ICA” value in assay [1] is given as less than 0.1%.

In the case of `C=C1/C(=C\C=C2/CCC[C@]3(C)[C@@H]([C@H](C)C=C=CC(C)(C)O)CC[C@@H]23)C[C@@H](O)C[C@@H]1O` [HQ], the “Classic Vit D Responses ICA” value in assay [1] was found to be 2.5%. Same read-out and setting: the value for `C=C1/C(=C\C=C2/CCC[C@]3(C)[C@@H]([C@H](C)C=C=CC(C)(C)O)CC[C@@H]23)C[C@@H](O)C[C@@H]1O` [HR] was 12%. Take `C[C@H](CCCC(C)(C)O)[C@H]1CC[C@H]2C3=CC=C4C[C@@H](O)C[C@H](O)[C@]4(C)[C@H]3CC[C@]12C` [JM]: in assay [2], the “Rapid Trans-Caltachia, relative to 1α,25(OH)2 D3” value was 60% and the “stimulation of transcaltachia (in words, FIG. 11)” value is “comparable or better than the reference compound”. The “Classic Vit D Responses ICA” value in assay [1] was 1.8%. Consider `C[C@H](CCCC(C)(C)O)[C@H]1CC[C@H]2C3=CC=C4C[C@@H](O)C[C@H](O)[C@@]4(C)[C@@H]3CC[C@]12C` [JN], for which, in assay [2], the “Rapid Trans-Caltachia, relative to 1α,25(OH)2 D3” value is 105% and the “stimulation of transcaltachia (in words, FIG. 11)” value was “comparable or better than the reference compound”. Moreover, the “Classic Vit D Responses ICA” value in assay [1] came out at 2.1%. As to `C[C@H](CCCC(C)(C)O)[C@H]1CC[C@H]2C3=CC=C4C[C@@H](O)C[C@H](O)[C@@]4(C)[C@H]3CC[C@]12C` [JO], in assay [2], the “Rapid Trans-Caltachia, relative to 1α,25(OH)2 D3” value is 50%. For the same compound, the “Classic Vit D Responses ICA” value in assay [1] is given as 0.6%. The matching figures for `C[C@H](CCCC(C)(C)O)[C@H]1CC[C@H]2C3=CC=C4C[C@@H](O)C[C@H](O)[C@]4(C)[C@@H]3CC[C@]12C` [JP]: 60% and 0.5%.

In the case of `CC1=C(C=C=C2CCC[C@]3(C)[C@@H]([C@H](C)CCCC(C)(C)O)CC[C@@H]23)C[C@@H](O)C[C@@H]1O` [JV], in assay [1], the “Classic Vit D Responses ICA” value is on record as 0.02%. On the same count and under the same terms, the value for `CC1=C(C=C=C2CCC[C@]3(C)[C@@H]([C@H](C)CCCC(C)(C)O)CC[C@@H]23)C[C@@H](O)C[C@@H]1O` [JW] was 0.05%; that for `C=C1CC[C@H](O)C/C1=C/C=C1\CCC[C@]2(C)[C@@H]([C@H](C)Cc3ccc(O)cc3)CC[C@@H]12` [JX] was less than 0.05%. The same measure, in the same setting: the value for `C=C1CC[C@H](O)C/C1=C/C=C1\CCC[C@]2(C)[C@@H]([C@H](C)Cc3cccc(O)c3)CC[C@@H]12` [JY] was less than 0.05%.

`C=C1/C(=C\C=C2/CCC[C@]3(C)[C@@H]([C@H](C)CCCC(C)(C)O)C[C@@H]4C[C@@]243)C[C@@H](O)C[C@@H]1O` [LO]: in assay [1], the “Classic Vit D Responses ICA” value came to 30% and the “ICA (in words)” value is “reasonable stimulator of intestinal Ca^2+ absorption (ICA)”.
